# Experimental data published in US12662498B2 (priority 2017, dated 2026).
# Columns and labels:
# Solubility in water = format: physicochemical
# Excerpt: (§1) The psilocybin of the invention in the form Polymorph A or A′ has the general properties illustrated in Table 5 below: […]
# Hygroscopicity = format: physicochemical; settings: high humidity / added to water
# Excerpt: as §1
# [1] = ICH stability study of psilocybin batches (appearance, water content, purity, assay); settings: 2-8° C., 25° C./60% RH and 40° C./75% RH
# [2] = Heat cycling slurry maturation of Psilocybin Pattern A in 24 solvents (visual solubility)
# [3] = Heat cycling slurry maturation of amorphous Psilocybin (visual solubility, form fate); format: physicochemical; settings: for Obs. at 20° C. / Obs. at 45° C. / Obs. at 50° C.: 20 vol.; for Obs. at 45° C.: 45° C. for 18 hours; for Obs. at 50° C.: 50° C. for 8 hours; for XRPD Data (form fate): solid isolated after heat cycling slurry maturation
# Procedure: In order to generate amorphous material a small sample of Psilocybin (0.5 g) was dissolved in water (0.5 L, 1000 vol.), polish filtered and lyophilised. Psilocybin was recovered as an off white fibrous material (lot MC1368A; 412 mg, 82%, XRPD amorphous).
# To assess visually solubility of the amorphous API and to induce form modification, a series of slurry maturations were performed as follows:
# Psilocybin (15 mg) was charged to tubes. Solvent was then added at ambient temperature (20° C., 0.3 ml, 20 vol.) and the suspensions agitated. Observations were made. After 1 hour of stirring, samples were heated to 45° C. for 18 hours and observations made. Samples were heated to 50° C. for 8 hours and observations were made. The samples were agitated for 72 hours at 25° C. and subject to a final heat cycle, prior to isolation.
smiles,measurement,setting,value
"CN(C)CCc1c[nH]c2cccc(OP(=O)(O)O)c12 [Psilocybin, 3-[2-(dimethylazaniumyl) Ethyl]-1H-indol-4-yl Hydrogen Phosphate]",solubility,Solubility in water,~15 mg/mL
same,Hygroscopicity,Hygroscopicity,Psilocybin forms Hydrate A at high
same,chemical stability over the first 12 months of the ICH stability study,[1],chemically stable
same,solubility in the solvents and solvent mixtures tested,[2]; 30 volumes at 50° C.,largely insoluble
same,solubility in water,"[2]; Water, 50° C.",did solubilise
CN(C)CCc1c[nH]c2cccc(OP(=O)(O)O)c12 [amorphous Psilocybin],Obs. at 20° C.,[3]; 4:1 EtOH/water,Susp.
same,Obs. at 45° C.,[3]; 4:1 EtOH/water,Susp.
same,Obs. at 50° C.,[3]; 4:1 EtOH/water,Susp.
same,Obs. at 20° C.,[3]; 4:1 IPA/water,Susp.
same,Obs. at 45° C.,[3]; 4:1 IPA/water,Susp.
same,Obs. at 50° C.,[3]; 4:1 IPA/water,Susp.
same,Obs. at 20° C.,[3]; 4:1 THF/water,Susp.
same,Obs. at 45° C.,[3]; 4:1 THF/water,Susp.
same,Obs. at 50° C.,[3]; 4:1 THF/water,Susp.
same,Obs. at 20° C.,[3]; Acetonitrile,Susp.
same,Obs. at 45° C.,[3]; Acetonitrile,Susp.
same,Obs. at 50° C.,[3]; Acetonitrile,Susp.
same,XRPD Data (form fate),[3]; Acetonitrile,Amorphous
same,Obs. at 20° C.,[3]; Anisole,Susp.
same,Obs. at 45° C.,[3]; Anisole,Susp.
same,Obs. at 50° C.,[3]; Anisole,Susp.
same,XRPD Data (form fate),[3]; Anisole,Semi-crystalline
same,Obs. at 20° C.,[3]; Benzotrifluoride,Susp.
same,Obs. at 45° C.,[3]; Benzotrifluoride,Susp.
same,Obs. at 50° C.,[3]; Benzotrifluoride,Susp.
same,XRPD Data (form fate),[3]; Benzotrifluoride,Semi-crystalline
same,Obs. at 20° C.,[3]; CPME,Susp.
same,Obs. at 45° C.,[3]; CPME,Susp.
same,Obs. at 50° C.,[3]; CPME,Susp.
same,XRPD Data (form fate),[3]; CPME,Semi-crystalline
same,Obs. at 20° C.,[3]; Chlorobenzene,Susp.
same,Obs. at 45° C.,[3]; Chlorobenzene,Susp.
same,Obs. at 50° C.,[3]; Chlorobenzene,Susp.
same,XRPD Data (form fate),[3]; Chlorobenzene,Semi-crystalline
same,Obs. at 20° C.,[3]; Chlorobutane,Susp.
same,Obs. at 45° C.,[3]; Chlorobutane,Susp.
same,Obs. at 50° C.,[3]; Chlorobutane,Susp.
same,XRPD Data (form fate),[3]; Chlorobutane,Pattern B
same,Obs. at 20° C.,[3]; Chloroform,Susp.
same,Obs. at 45° C.,[3]; Chloroform,Susp.
same,Obs. at 50° C.,[3]; Chloroform,Susp.
same,Obs. at 20° C.,[3]; Cyclohexane,Susp.
same,Obs. at 45° C.,[3]; Cyclohexane,Susp.
same,Obs. at 50° C.,[3]; Cyclohexane,Susp.
same,XRPD Data (form fate),[3]; Cyclohexane,Semi-crystalline
same,Obs. at 20° C.,[3]; EtOAc,Susp.
same,Obs. at 45° C.,[3]; EtOAc,Susp.
same,Obs. at 50° C.,[3]; EtOAc,Susp.
same,XRPD Data (form fate),[3]; EtOAc,Semi-crystalline
same,Obs. at 20° C.,[3]; EtOH,Susp.
same,Obs. at 45° C.,[3]; EtOH,Susp.
same,Obs. at 50° C.,[3]; EtOH,Susp.
same,XRPD Data (form fate),[3]; EtOH,Pattern D
same,Obs. at 20° C.,[3]; Heptane,Susp.
same,Obs. at 45° C.,[3]; Heptane,Susp.
same,Obs. at 50° C.,[3]; Heptane,Susp.
same,XRPD Data (form fate),[3]; Heptane,Semi-crystalline
same,Obs. at 20° C.,[3]; IPA,Susp.
same,Obs. at 45° C.,[3]; IPA,Susp.
same,Obs. at 50° C.,[3]; IPA,Susp.
same,XRPD Data (form fate),[3]; IPA,Pattern B
same,Obs. at 20° C.,[3]; MEK,Susp.
same,Obs. at 45° C.,[3]; MEK,Susp.
same,Obs. at 50° C.,[3]; MEK,Susp.
same,XRPD Data (form fate),[3]; MEK,Semi-crystalline
same,Obs. at 20° C.,[3]; MIBK,Susp.
same,Obs. at 45° C.,[3]; MIBK,Susp.
same,Obs. at 50° C.,[3]; MIBK,Susp.
same,XRPD Data (form fate),[3]; MIBK,Semi-crystalline
same,Obs. at 20° C.,[3]; MeOH,Susp.
same,Obs. at 45° C.,[3]; MeOH,Susp.
same,Obs. at 50° C.,[3]; MeOH,Susp.
same,XRPD Data (form fate),[3]; MeOH,Semi-crystalline
same,Obs. at 20° C.,[3]; Nitromethane,Susp.
same,Obs. at 45° C.,[3]; Nitromethane,Susp.
same,Obs. at 50° C.,[3]; Nitromethane,Susp.
same,XRPD Data (form fate),[3]; Nitromethane,Pattern B
same,Obs. at 20° C.,[3]; TBME,Susp
same,Obs. at 45° C.,[3]; TBME,Susp.
same,Obs. at 50° C.,[3]; TBME,Susp.
same,XRPD Data (form fate),[3]; TBME,Semi-crystalline
same,Obs. at 20° C.,[3]; THF,Susp.
same,Obs. at 45° C.,[3]; THF,Susp.
same,Obs. at 50° C.,[3]; THF,Susp.
same,XRPD Data (form fate),[3]; THF,Semi-crystalline
same,Obs. at 20° C.,[3]; Toluene,Susp.
same,Obs. at 45° C.,[3]; Toluene,Susp.
same,Obs. at 50° C.,[3]; Toluene,Susp.
same,Obs. at 20° C.,[3]; Water,Susp.
same,Obs. at 45° C.,[3]; Water,Susp.
same,Obs. at 50° C.,[3]; Water,Susp.
same,Obs. at 20° C.,[3]; iPrOAc,Susp.
same,Obs. at 45° C.,[3]; iPrOAc,Susp.
same,Obs. at 50° C.,[3]; iPrOAc,Susp.
same,XRPD Data (form fate),[3]; iPrOAc,Semi-crystalline
